Measurements: patent EP1057825A1, “ISOFLAVANE DERIVATIVES AND IMMUNOPOTENTIATING COMPOSITIONS CONTAINING THE SAME” (SHIONOGI & CO., LTD., priority 1998, dated 1999)

Columns and labels:
mouse bone marrow cells = test: Metabolism promoting action on mouse bone marrow cells (mitochondrial metabolism activity, MTT reduction method); format: cell-based, BALB/c mouse; settings: 5 days, magnitude of metabolism, no test compound = one; for activity at 0.39 µg/mL / activity at 0.78 µg/mL / activity at 1.56 µg/mL / activity at 3.13 µg/mL / activity at 6.25 µg/mL / activity at 12.5 µg/mL: Mus musculus, Bone marrow cell, 120 h
From the text: The presence of an immunoactivating action can be determined if the magnitude of metabolism exceeds one, where the cellular metabolism of cells not having test compounds added thereto is defined as one.

mouse spleen cells = test: Action on the blastogenesis of mouse spleen cells (ConA-stimulated, MTT reduction method); format: cell-based, BALB/c mouse; settings: ConA 1 µg/ml, 3 days, rate against no test compound = one; for activity at 0.1 µg/mL / activity at 0.2 µg/mL / activity at 0.39 µg/mL / activity at 0.78 µg/mL / activity at 1.56 µg/mL / activity at 3.13 µg/mL / activity at 6.25 µg/mL: Mus musculus, 72 h
Method: Serial two-fold dilutions (100 µl/well) with 10% FBS of test compounds which are dissolved in a dimethyl sulfoxide (DMSO) solution are obtained on a 96-well microplate, and used as test samples.
The spleen of a BALB/c mouse is aseptically isolated, and gently ground on a wire mesh with dropwise addition of sterilzed saline. The filtrate is passed through a nylon mesh (Becton Dickinson; pore size: 70 µm), thereby preparing a unicellular suspension.
(§1) After being washed twice with sterilized saline, the spleen cells are suspended in RPMI1460 containing 10% FCS and containing 1 µg/ml of concanavalin A (abbreviated as ConA: Sigma, U.S.) as well as an antibiotic (Sigma: Antibiotic Antimycotic), and dispensed into a 96-well microplate, in which 100 µl each of diluted test samples are previously dispensed, in amounts of 3 × 10^5 cells/100 µl/well.
Thereafter, culturing is carried out under 5% carbon dioxide gas at 37°C for 3 days, and then the blastogenesis of lymphocytes is measured by an MTT reduction method [Mosmann T, Journal of Immunological Method, vol. 65, p. 55, 1983]. The blastogenesis rate can be quantitated as a rate against the blastogenesis of those not having test compounds added thereto, which is defined as one. The presence of an immunoactivating action can be determined if the blastogenesis rate exceeds one.
Serial two-fold dilutions (100 µl/well) with RPMI1640 (Nikken Biomedical Laboratory) containing 10% FBS (bovine fetal serum: Dainippon Pharmaceutical Co., Ltd.) of test compounds which were dissoloved in a dimethylsulfoxide (DMSO) solution were obtained on a 96-well microplate, and used as test samples.
The spleen of a BALB/c mouse (a 6 week-old female) was aseptically isolated, and gently ground on a wire mesh with dropwise addition of sterilzed saline. The filtrate was passed through a nylon mesh (Becton Dickinson; pore size: 70 µm), thereby preparing a unicellular suspension.
as §1, with “cells were” for “cells are”, “samples had” for “samples are”, “previously been” for “previously”, “of 3×10^5” for “of 3 × 10^5”
Thereafter, culturing was carried out under 5% carbon dioxide gas at 37°C for 3 days, and then the blastogenesis of lymphocytes was measured by an MTT reduction method [Mosmann T, Journal of Immunological Method, vol. 65, p. 55, 1983]. The results are shown in [Table 4].

[1] = Test compound concentration 0.39 µg/ml
[2] = Test compound concentration 0.78 µg/ml
[3] = Test compound concentration 1.56 µg/ml
[4] = Test compound concentration 3.13 µg/ml
[5] = Test compound concentration 6.25 µg/ml
[6] = Test compound concentration 12.5 µg/ml
[7] = concentration of additions in medium 0.1 μg/ml
[8] = concentration of additions in medium 0.2 μg/ml
[9] = concentration of additions in medium 0.39 μg/ml
[10] = concentration of additions in medium 0.78 μg/ml
[11] = concentration of additions in medium 1.56 μg/ml
[12] = concentration of additions in medium 3.13 μg/ml
[13] = concentration of additions in medium 6.25 μg/ml

Molecule	activity at 0.39 µg/mL (mouse bone marrow cells; [1]) [%]	activity at 0.78 µg/mL (mouse bone marrow cells; [2]) [%]	activity at 1.56 µg/mL (mouse bone marrow cells; [3]) [%]	activity at 3.13 µg/mL (mouse bone marrow cells; [4]) [%]	activity at 6.25 µg/mL (mouse bone marrow cells; [5]) [%]	activity at 12.5 µg/mL (mouse bone marrow cells; [6]) [%]	activity at 0.1 µg/mL (mouse spleen cells; [7]) [%]	activity at 0.2 µg/mL (mouse spleen cells; [8]) [%]	activity at 0.39 µg/mL (mouse spleen cells; [9]) [%]	activity at 0.78 µg/mL (mouse spleen cells; [10]) [%]	activity at 1.56 µg/mL (mouse spleen cells; [11]) [%]	activity at 3.13 µg/mL (mouse spleen cells; [12]) [%]	activity at 6.25 µg/mL (mouse spleen cells; [13]) [%]	also measured
COc1c(CC=C(C)C)c(O)cc2c1CC(c1ccc(O)c(CC=C(C)C)c1O)CO2 (centres unmarked) [A-1, 4-[3,4-dihydro-7-hydroxy-5-methoxy-6-(3-methyl-2-butenyl)-2H-1-benzopyran-3-yl]-2-(3-methyl-2-butenyl)-1,3-benzenediol]	114	101	93	127	198	58	113	109	129	157	188	225	171	–
COc1c(C2COc3cc(O)c(CC=C(C)C)c(OC)c3C2)ccc(O)c1CC=C(C)C (centres unmarked) [A-8, 3-(4-hydroxy-2-methoxy-3-(3-methyl-2-butenyl)-phenyl)-3,4-dihydro-5-methoxy-7-hydroxy-6-(3-methyl-2-butenyl)-2H-1-benzopyran]	113	127	161	156	50	51	111	99	112	122	103	34	23	–
COc1ccc(C2COc3cc(OC)c(CC=C(C)C)c(OC)c3C2)c(OC)c1CC=C(C)C (centres unmarked) [A-3, 3-(2,4-dimethoxy-3-(3-methyl-2-butenyl)phenyl)-3,4-dihydro-5,7-dimethoxy-6-(3-methyl-2-butenyl)-2H-1-benzopyran]	111	108	114	114	111	62	98	88	88	79	83	120	246	–
COc1ccc(C2COc3cc(O)c(CC=C(C)C)c(OC)c3C2)c(O)c1CC=C(C)C (centres unmarked) [A-7, 3-(2-hydroxy-4-methoxy-3-(3-methyl-2-butenyl)-phenyl)-3,4-dihydro-5-methoxy-7-hydroxy-6-(3-methyl-2-butenyl)-2H-1-benzopyran]	103	112	139	152	51	51	113	107	132	161	195	293	408	–
COc1cc2c(c(OC)c1CC=C(C)C)CC(c1ccc(O)c(CC=C(C)C)c1O)CO2 (centres unmarked) [A-2, 4-[3,4-dihydro-5,7-dimethoxy-6-(3-methyl-2-butenyl)-2H-1-benzopyran-3-yl]-2-(3-methyl-2-butenyl)-1,3-benzenediol]	–	–	–	–	–	–	117	112	137	184	234	121	26	–
3-(2,4-dimethoxy-3-(3-methyl-2-butenyl)phenyl)-3,4-dihydro-5-hydroxy-7-methoxy-6-(3-methyl-2- butenyl)-2H-1-benzopyran [A-6]	–	–	–	–	–	–	–	–	–	–	–	–	–	metabolism activity of mouse bone marrow cells (mouse bone marrow cells; [1]): 0.97; metabolism activity of mouse bone marrow cells (mouse bone marrow cells; [2]): 1.05; metabolism activity of mouse bone marrow cells (mouse bone marrow cells; [3]): 1.20; metabolism activity of mouse bone marrow cells (mouse bone marrow cells; [4]): 1.52; metabolism activity of mouse bone marrow cells (mouse bone marrow cells; [5]): 0.77; metabolism activity of mouse bone marrow cells (mouse bone marrow cells; [6]): 0.51; blastogenesis rate (mouse spleen cells; [7]): 1.12; blastogenesis rate (mouse spleen cells; [8]): 1.05; blastogenesis rate (mouse spleen cells; [9]): 1.12; blastogenesis rate (mouse spleen cells; [10]): 1.26; blastogenesis rate (mouse spleen cells; [11]): 1.55; blastogenesis rate (mouse spleen cells; [12]): 2.46; blastogenesis rate (mouse spleen cells; [13]): 3.28
COc1ccc(C2COc3cc(OC)c(CC=C(C)C)c(OC)c3C2)c(O)c1CC=C(C)C (centres unmarked) [A-4, 3-(2-hydroxy-4-methoxy-3-(3-methyl-2-butenyl)-phenyl)-3,4-dihydro-5,7-dimethoxy-6-(3-methyl-2-butenyl)-2H-1-benzopyran]	107	107	121	132	133	58	105	101	109	113	155	231	375	–
COc1cc2c(c(OC)c1CC=C(C)C)CC(c1ccc(O)c(CC=C(C)C)c1OC)CO2 (centres unmarked) [A-5, 3-(4-hydroxy-2-methoxy-3-(3-methyl-2-butenyl)-phenyl)-3,4-dihydro-5,7-dimethoxy-6-(3-methyl-2-butenyl)-2H-1-benzopyran]	116	120	138	146	55	53	101	96	107	111	118	209	239	–
